Assay results from US20260098007A1, “Compounds and Their Use in Filtering Ultraviolet and/or High-Energy Visible Light” (Soliome Inc., priority 2022, published 2026).
One block for each compound: values may come before it. Where a SMILES comes first, the peptide text is derived from it. [ ]: non-standard residue; d: D form. Kyn = Nc1ccccc1C(=O)C[CH](N)C(=O)O

Tests used:
[1] = OxiSelect Hydroxyl Radical Antioxidant Capacity (HORAC) Activity Assay; format: biochemical; details: for antioxidant potential (HORAC) compared with gallic acid: result in words
Text: An OxiSelect Hydroxyl Radical Antioxidant Capacity (HORAC) Activity Assay (Cell Biolabs Inc. catalog #STA-346-T) was used to determine the antioxidant potential of compound 4 (butyl 4-(2-aminophenyl)-2-(4-(2-aminophenyl)-2-butyramido-4-oxobutanamido)-4-oxobutanoate) following the manufacturer's protocol. Gallic Acid (GA) was used as antioxidant Calibrator: The HORAC assay was used to evaluate the application of the compounds of the invention as antioxidant.
A small amount of compound 4 was resuspended in assay diluent and the concentration determined using the extinction coefficient previously determined at 368 nm (6070 M^−1 cm^−1). The concentration of the stock solution was 624 μM. Three concentrations of the compound were tested in the assay: 468 μM, 312 μM, and 156 μM. The assay was run in a clear bottomed 96-well plate using a Molecular Devices SpectraMax M2 with an excitation wavelength of 480 nm and an emission wavelength of 530 nm. The emission wavelength cutoff was set to 515 nm. The photomultiplier sensitivity set to medium. The plate was read once a minute for 60 minutes.
Compounds 42, 43, 44, and 46, were tested for their antioxidant capacity as described as previously described using an OxiSelect Hydroxyl Radical Antioxidant Capacity (HORAC) Activity Assay (Cell Biolabs Inc. catalog #sta-346-T).

[2] = Determination of maximal UV absorbance, extinction coefficients and critical wavelengths (UV visible spectroscopy); format: physicochemical; details: for peak absorbance: UV visible spectroscopy, diluted in ethanol; for critical wavelength: in vitro, 90% of the total absorbance integrated from 290 to 400 nm
Experimental: Extinction coefficients were determined by measuring the dry mass of each compounds and diluting it serially in ethanol (CAS […]). A series of concentrations were tested with UV visible spectroscopy.
In vitro critical wavelengths were determined by integrating the total absorbance from 290 to 400 nm and finding the region under that curve from higher energy to lower energy that is equal to 90% of the total absorbance, similar to that described by Diffey B. L., et al. J. Am. Acad. Dermatol. 2000, 43, 1024-1035.

[3] = Absorbance spectrum (ultraviolet-visible spectroscopy, diode array detector); format: physicochemical; details: for absorbance region (in words): FIG. 1 and 2
Experimental: High pressure liquid chromatography: Samples were suspended in ethanol (Sigma Aldrich 103343081, CAS 64-17-5) and injected onto a reverse phase base deactivated silica C-18 column, […], 150×4.6 mm (Hypersil 9867). This column was temperature controlled at 35° C. using a Shimadzu CTO-10A column oven. Samples were injected with a Shimadzu SIL-10AD VP auto injector. The program was run using a Shimadzu LC1-20AD pump system, and detection was monitored with ultraviolet-visible spectroscopy from 200 to 700 nm using a Shimadzu SPD-M20A diode array detector.

skin = assay: Skin protection against damage by UV (erythema); format: in vivo; details: 10% (w/w) solution at 2 mg/cm^2 on skin, Sperti Sun Lamp 20 cm for 10 min, vs unprotected skin
Experimental: To test the protective capability of this class of compounds against damage to skin by UV, a 10% (w/w) solution of compounds was applied to skin at 2 mg/cm^2 and allowed to dry for 15 minutes. UV light was introduced using a […] Sun Lamp (model Miami P107). The application area on the skin was held facing the lamp at a distance of 20 cm for 10 min.

Structure (SMILES): Nc1ccccc1C(=O)CC(NC(=O)CCCC(=O)O)C(=O)O (centres unmarked) [Compound 46, 5-((3-(2-aminophenyl)-1-carboxy-3-oxopropyl)amino)-5-oxopentanoic acid]
antioxidant potential (HORAC) compared with gallic acid [1]: equal, or greater than, gallic acid

Structure (SMILES): CC(=O)NC(CC(=O)c1ccccc1N)C(N)=O (centres unmarked) [Compound 44, 2-acetamido-4-(2-aminophenyl)-4-oxobutanamide]
antioxidant potential (HORAC) compared with gallic acid [1]: equal, or greater than, gallic acid

Structure (SMILES): Nc1ccccc1C(=O)CC(NC(=O)CCC(=O)O)C(=O)O (centres unmarked) [Compound 42, 4-(2-aminophenyl)-2-(3-carboxypropanamido)-4-oxobutanoic acid]
antioxidant potential (HORAC) compared with gallic acid [1]: equal, or greater than, gallic acid
erythema after UV exposure (skin): significantly reduced erythema

Structure (SMILES): CCCCOC(=O)C(CC(=O)c1ccccc1N)NC(=O)C(CC(=O)c1ccccc1N)NC(=O)CCC (centres unmarked) [Compound 4, butyl 4-(2-aminophenyl)-2-(4-(2-aminophenyl)-2-butyramido-4-oxobutanamido)-4-oxobutanoate]
antioxidant potential (HORAC) ([1]; tested at 468 μM, 312 μM and 156 μM, gallic acid as calibrator): 1.8 gallic acid equivalents per mole
peak absorbance [2]: around 368 nm
critical wavelength [2]: 385 nm

Structure (SMILES): COC(=O)C(CC(=O)c1ccccc1N)NC(=O)C[N+](C)(C)C (centres unmarked) [Compound 43, 2-((4-(2-aminophenyl)-1-methoxy-1,4-dioxobutan-2-yl)amino)-N,N,N-trimethyl-2-oxoethan-1-aminium]
antioxidant potential (HORAC) compared with gallic acid [1]: equal, or greater than, gallic acid

Now from value to compound:

peak absorbance [2]: around 325 nm
critical wavelength [2]: 355 nm
extinction coefficient ([2]; slope of absorbance vs concentration, in ethanol, at peak absorbance): 4600 M⁻¹ cm⁻¹
Structure (SMILES): CCCCOC(=O)C(CC(=O)c1ccccc1NC(=O)CCC)NC(=O)C(CC(=O)c1ccccc1NC(=O)CCC)NC(=O)CCC (centres unmarked) [Compound 5, butyl 2-(2-butyramido-4-(2-butyramidophenyl)-4-oxobutanamido)-4-(2-butyramidophenyl)-4-oxobutanoate]

absorbance region (in words) [3]: strong absorbance in the UVB region
Structure (SMILES): CCCC(=O)Nc1ccccc1C(=O)CC(NC(C)=O)C(=O)NC(CC(=O)c1ccccc1NC(=O)CCC)C(=O)OC (centres unmarked) [Compound 2, Methyl 2-(2-acetamido-4-(2-butyramidophenyl)-4-oxobutanamido)-4-(2-butyramidophenyl)-4-oxobutanoate]

absorbance upper wavelength limit ([3]; FIG. 1): up to 410 nm
absorbance region (in words) [3]: strong absorbance in the UVA region
Structure (SMILES): COC(=O)C(CC(=O)c1ccccc1N)NC(=O)C(CC(=O)c1ccccc1N)NC(C)=O (centres unmarked) [Compound 1, methyl 2-(2-acetamido-4-(2-aminophenyl)-4-oxobutanamido)-4-(2-aminophenyl)-4-oxobutanoate] (Ac-[Kyn]-[Kyn]-OMe; configuration not given here)
